Experimental data taken from patent US9199943B2, “2-(poly-substituted aryl)-6-amino-5-halo-4-pyrimidinecarboxylic acids and their use as herbicides” (Dow AgroSciences, LLC., priority 2006, dated 2015).

Tests used:
Format in all cases: in vivo
[1] = system: HELAN = sunflower (Helainthus annuus); assay: General postemergence herbicidal activity, sunflower; settings: post-emergence, 336 h; post-emergent, 140 g ai/ha, visual score after 14 days (0 no injury, 100 complete kill)
Protocol: Seeds or nutlets of the desired test plant species were planted in Sun Gro MetroMix® 306 planting mixture, which typically has a pH of 6.0 to 6.8 and an organic matter content of about 30 percent, in plastic pots with a surface area of 64 square centimeters. When required to ensure good germination and healthy plants, a fungicide treatment and/or other chemical or physical treatment was applied. The plants were grown for 7-21 days in a greenhouse with an approximate 15 hour photoperiod which was maintained at about 23-29° C. during the day and 22-28° C. during the night. Nutrients and water were added on a regular basis and supplemental lighting was provided with overhead metal halide 1000-Watt lamps as necessary. The plants were employed for testing when they reached the first or second true leaf stage.
A weighed amount, determined by the highest rate to be tested, of each test compound was placed in a 25 mL glass vial and was dissolved in 4 mL of a 97:3 v/v (volume/volume) mixture of acetone and dimethyl sulfoxide (DMSO) to obtain concentrated stock solutions. […] The concentrated stock solutions obtained were diluted with 20 mL of an aqueous mixture containing acetone, water, isopropyl alcohol, DMSO, Atplus 411F crop oil concentrate, and Triton X-155 surfactant in a 48.5:39:10:1.5:1.0:0.02 v/v ratio to obtain spray solutions containing the highest application rates. Additional application rates were obtained by serial dilution of 12 mL of the high rate solution into a solution containing 2 mL of 97:3 v/v (volume/volume) mixture of acetone and dimethyl sulfoxide (DMSO) and 10 mL of an aqueous mixture containing acetone, water, isopropyl alcohol, DMSO, Atplus 411F crop oil concentrate, and Triton X-155 surfactant in a 48.5:39:10:1.5:1.0:0.02 v/v ratio to obtain ½×, ¼×, ⅛× and 1/16× rates of the high rate. Compound requirements are based upon a 12 mL application volume at a rate of 187 L/ha. Formulated compounds were applied to the plant material with an overhead Mandel track sprayer equipped with a 8002E nozzles calibrated to deliver 187 L/ha over an application area of 0.503 square meters at a spray height of 18 inches (43 cm) above the average plant canopy height. Control plants were sprayed in the same manner with the solvent blank.
(§1) The treated plants and control plants were placed in a greenhouse as described above and watered by sub-irrigation to prevent wash-off of the test compounds. After 14 days, the condition of the test plants as compared with that of the untreated plants was determined visually and scored on a scale of 0 to 100 percent where 0 corresponds to no injury and 100 corresponds to complete kill.
By applying the well-accepted probit analysis as described by J. Berkson in Journal of the […], 48, 565 (1953) and by D. Finney in “Probit Analysis” Cambridge University Press (1952), the above data can be used to calculate GR50 and GR80 values, which are defined as growth reduction factors that correspond to the effective dose of herbicide required to kill or control 50 percent or 80 percent, respectively, of a target plant.

[2] = system: TRZAS = wheat (Triticum aestivum); assay: Postemergence herbicidal activity in cereal crops, wheat; settings: post-emergence, 480 h, post-emergent, wheat (crop), after 20-22 days; for pest or weed control at 17.5 g/ha: 17.5 g ai/ha; for pest or weed control at 70 g/ha: 70 g ai/ha; for pest or weed control at 35 g/ha: 35 g ai/ha
Protocol: (§2) Seeds of the desired test plant species were planted in Sun Gro MetroMix® 306 planting mixture, which typically has a pH of 6.0 to 6.8 and an organic matter content of about 30 percent, in plastic pots with a surface area of 103.2 square centimeters. When required to ensure good germination and healthy plants, a fungicide treatment and/or other chemical or physical treatment was applied. The plants were grown for 7-36 days in a greenhouse with an approximate 14 hour photoperiod which was maintained at about 18° C. during the day and 17° C. during the night. Nutrients and water were added on a regular basis and supplemental lighting was provided with overhead metal halide 1000-Watt lamps as necessary. The plants were employed for testing when they reached the second or third true leaf stage.
(§3) A weighed amount, determined by the highest rate to be tested, of each test compound was placed in a 25 mL glass vial and was dissolved in 8 mL of a 97:3 v/v mixture of acetone and DMSO to obtain concentrated stock solutions. […] The concentrated stock solutions obtained were diluted with 16 mL of an aqueous mixture containing acetone, water, isopropyl alcohol, DMSO, Agri-dex crop oil concentrate, and Triton X-77 surfactant in a 64.7:26.0:6.7:2.0:0.7:0.01 v/v ratio to obtain spray solutions containing the highest application rates. Additional application rates were obtained by serial dilution of 12 mL of the high rate solution into a solution containing 4 mL of 97:3 v/v mixture of acetone and DMSO and 8 mL of an aqueous mixture containing acetone, water, isopropyl alcohol, DMSO, Agri-dex crop oil concentrate, and Triton X-77 surfactant in a 48.5:39.0:10.0:1.5:1.0:0.02 v/v ratio to obtain ½×, ¼×, ⅛× and 1/16× rates of the high rate. Compound requirements are based upon a 12 mL application volume at a rate of 187 L/ha. Formulated compounds were applied to the plant material with an overhead Mandel track sprayer equipped with a 8002E nozzles calibrated to deliver 187 L/ha over an application area of 0.503 square meters at a spray height of 18 inches (43 cm) above average plant canopy height. Control plants were sprayed in the same manner with the blank.
as §1, with “20-22” for “14”

PAPRH = Papaver rhoeas = assay: Postemergence herbicidal activity in cereal crops, Papaver rhoeas; settings: post-emergence, 480 h, post-emergent, after 20-22 days; for pest or weed control at 17.5 g/ha: 17.5 g ai/ha; for pest or weed control at 70 g/ha: 70 g ai/ha; for pest or weed control at 35 g/ha: 35 g ai/ha
Protocol: as §2, §3
as §1, with “20-22” for “14”

SMILES	pest or weed control at 140 g/ha [1]	pest or weed control at 17.5 g/ha [2]	pest or weed control at 17.5 g/ha (PAPRH = Papaver rhoeas)	pest or weed control at 70 g/ha [2]	pest or weed control at 70 g/ha (PAPRH = Papaver rhoeas)	pest or weed control at 35 g/ha [2]	pest or weed control at 35 g/ha (PAPRH = Papaver rhoeas)
COC(=O)c1nc(-c2ccc(Cl)c(OC)c2F)nc(N)c1Br [Compound 13, 6-amino-5-bromo-2-(4-chloro-2-fluoro-3-methoxyphenyl)-pyrimidine-4-carboxylic acid methyl ester]	100%	0%	100%	–	–	–	–
COC(=O)c1nc(-c2ccc3c(c2F)OCO3)nc(N)c1Cl [Compound 9, 6-Amino-5-chloro-2-(4-fluorobenzo[1,3]dioxol-5-yl)pyrimidine-4-carboxylic acid methyl ester]	100%	–	–	15%	40%	–	–
COC(=O)c1nc(-c2c(F)cc(Cl)c(OC)c2F)nc(N)c1Cl [Compound 2, 6-amino-5-chloro-2-(4-chloro-2,6-difluoro-3-methoxy-phenyl)pyrimidine-4-carboxylic acid methyl ester]	100%	–	–	–	–	0%	100%
COC(=O)c1nc(-c2ccc(Cl)c(C(F)F)c2F)nc(N)c1Cl [Compound 7, 6-Amino-5-chloro-2-(4-chloro-3-difluoromethyl-2-fluorophenyl)pyrimidine-4-carboxylic acid methyl ester]	100%	15%	95%	–	–	–	–
CCOc1c(Cl)ccc(-c2nc(N)c(Cl)c(C(=O)OC)n2)c1F [Compound 1, 6-amino-5-chloro-2-(4-chloro-3-ethoxy-2-fluorophenyl)-pyrimidine-4-carboxylic acid methyl ester]	100%	–	–	–	–	0%	100%
COC(=O)c1nc(-c2ccc(Cl)c(N(C)C)c2F)nc(N)c1Cl [Compound 8, 6-Amino-5-chloro-2-(4-chloro-3-dimethylamino-2-fluorophenyl)pyrimidine-4-carboxylic acid methyl ester]	100%	–	–	–	–	15%	100%
COC(=O)c1nc(-c2ccc(Cl)c(OCC(F)F)c2F)nc(N)c1Cl [Compound 10, 6-Amino-5-chloro-2-[4-chloro-3-(2,2-difluoroethoxy)-2-fluorophenyl]-pyrimidine-4-carboxylic acid methyl ester]	80%	–	–	5%	95%	–	–
COC(=O)c1nc(-c2ccc(Cl)c(OC)c2F)nc(N)c1Cl [Compound 3, 6-amino-5-chloro-2-(4-chloro-2-fluoro-3-methoxyphenyl)-pyrimidine-4-carboxylic acid methyl ester]	100%	0%	100%	–	–	–	–
COC(=O)c1nc(-c2ccc(Cl)c(OC)c2Cl)nc(N)c1Cl [Compound 6, 6-Amino-5-chloro-2-(2,4-dichloro-3-methoxyphenyl)pyrimidine-4-carboxylic acid methyl ester]	100%	–	–	10%	99%	–	–
